Data set [1] addresses T1, human OATP1B1 (Homo sapiens (Human), UniProt Q9Y6L6). Briefly: In Vitro Inhibition Assessment with Human OATP1B1 Transporter. Particulars: HEK293-OATP1B1 cells, probe substrate pravastatin. The class given is in vitro ADME. In short, it runs like this: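 Pravastatin uptake was measured by LC-MS/MS after a 5 min exposure with inhibitor, following a 15 min inhibitor preincubation, in transfected versus mock HEK293 cells. Transport activity was derived as (transfected − mock) with compound over the same difference with solvent. IC50 is the concentration halving maximal activity; final DMSO was 0.4%.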

For data set [2], the target named is KHK-C expressed in NRK-52E cells (Homo sapiens (Human), UniProt P50053). The data set is described as follows: KHK-C Cell-based Assay (EC50), NRK CTG, fructose-mediated ATP-depletion.
Sequence of KHK-C expressed in NRK-52E cells (P50053 whole entry): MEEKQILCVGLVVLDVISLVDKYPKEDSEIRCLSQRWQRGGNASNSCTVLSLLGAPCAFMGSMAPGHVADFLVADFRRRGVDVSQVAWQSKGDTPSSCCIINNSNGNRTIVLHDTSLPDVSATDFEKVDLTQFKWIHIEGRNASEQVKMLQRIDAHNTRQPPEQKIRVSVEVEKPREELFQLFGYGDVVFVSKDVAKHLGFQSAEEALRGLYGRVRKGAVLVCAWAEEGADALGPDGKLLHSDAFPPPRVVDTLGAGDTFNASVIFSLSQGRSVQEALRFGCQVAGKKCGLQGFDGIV
In a further data set the target is human KHK-C (Homo sapiens (Human), UniProt P50053). The data set is described as follows: KHK Biochemical Assay (IC50), ADP-Glo, KHK-C. To be noted: ADP-Glo; average of at least two separate assays. In short, it runs like this: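 ADP-Glo luminescence measured ADP made over a 4 h room-temperature reaction of ATP plus fructose, started after 30 min compound–enzyme pre-incubation. Buffer: 50 mM Hepes pH 7.4, 140 mM KCl, 5 mM MgCl2, 0.01% Triton-X. Enzyme was His-tagged, BL21 (DE3)-expressed, Ni-NTA-purified; compounds in 1:3 DMSO dilution series.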
Sequence of human KHK-C (P50053 whole entry): as above
(In general: ADP-Glo turns the ADP formed in a reaction into a luminescent signal.)

Data set [3] deals with T1, human OATP1B1. Briefly: In Vitro Substrate Assessment with Human OATP1B1 Transporter. The class given is in vitro ADME. To be noted: HEK293-OATP1B1 vs mock cells; substrate if uptake ≥2-fold of mock and decreased by ≥30% with known OATP inhibitor. The source says:
In Vitro Substrate Assessment with Human OATP1B1 and OATP1B3 Transporters
The purpose of this assay was to assess whether test articles (TAs), were substrates for the hepatic uptake transporters organic anion transporting polypeptide (OATP) 1B1 (SLCO1B1) and 1B3 (SLCO1B3) using non-transfected (Mock) and transfected human embryonic kidney (HEK293) cells. […] On assay day, media were removed from the assay plates and cells were washed with Hanks' Balanced Salt Solution (HBSS Buffer) (Corning, Cat. #21-023-CV). Cells were preincubated with HBSS buffer with or without known OATP inhibitors for 30 minutes. […] The incubation period was 2 minutes. Cells were then washed three times with ice cold HBSS buffer and then were immediately extracted with methanol:water (70:30 v:v) containing internal standard labetolol (30 nM). The supernatants were evaporated to dryness on injection plates and reconstituted in 80% water containing 20% acetonitrile and 0.1% formic acid for analysis by liquid chromatography with tandem mass spectrometry (LC-MS-MS).
The rate of uptake into cells was determined by the following formula: Rate of uptake=(A*B)/(C*D)
• A: concentration of compound in cell lysate • B: volume of sample • C: Incubation time • D: millions of cells in sample
A TA was considered a substrate for OATP transporter if: (1) the rate of uptake in the transporter transfected cells was ≥2-fold of the rate of uptake in the mock cells; and (2) the rate of uptake in the transporter transfected cells was decreased by ≥30% in the presence of a known OATP inhibitor.

The subject of another data set is HepG2 cells. The data set is described as follows: F1P Cell-Based Assay (EC50), 13C6-fructose-1-phosphate in HepG2 cells (cell culture medium or 50% human plasma). Particulars: Homo sapiens.
Data set [4] in a line: pKa analysis by capillary electrophoresis (pKa PRO Analyzer, co-solvent method). The class given is physicochemical. Particulars: methanol/aqueous co-solvent buffers, co-solvent method (60% to 30% methanol buffers). In short, it runs like this: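 Capillary electrophoresis by the co-solvent method, with 100 μM compound and 1% DMSO in 2 mM HCl or NaOH at 60% methanol.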

Consider six compounds from US12410160B2 (Gilead Sciences, Inc., priority 2021, dated 2025).

Where two headings read alike, the source gives them in different places.

T1 sequence (Q9Y6L6 whole entry): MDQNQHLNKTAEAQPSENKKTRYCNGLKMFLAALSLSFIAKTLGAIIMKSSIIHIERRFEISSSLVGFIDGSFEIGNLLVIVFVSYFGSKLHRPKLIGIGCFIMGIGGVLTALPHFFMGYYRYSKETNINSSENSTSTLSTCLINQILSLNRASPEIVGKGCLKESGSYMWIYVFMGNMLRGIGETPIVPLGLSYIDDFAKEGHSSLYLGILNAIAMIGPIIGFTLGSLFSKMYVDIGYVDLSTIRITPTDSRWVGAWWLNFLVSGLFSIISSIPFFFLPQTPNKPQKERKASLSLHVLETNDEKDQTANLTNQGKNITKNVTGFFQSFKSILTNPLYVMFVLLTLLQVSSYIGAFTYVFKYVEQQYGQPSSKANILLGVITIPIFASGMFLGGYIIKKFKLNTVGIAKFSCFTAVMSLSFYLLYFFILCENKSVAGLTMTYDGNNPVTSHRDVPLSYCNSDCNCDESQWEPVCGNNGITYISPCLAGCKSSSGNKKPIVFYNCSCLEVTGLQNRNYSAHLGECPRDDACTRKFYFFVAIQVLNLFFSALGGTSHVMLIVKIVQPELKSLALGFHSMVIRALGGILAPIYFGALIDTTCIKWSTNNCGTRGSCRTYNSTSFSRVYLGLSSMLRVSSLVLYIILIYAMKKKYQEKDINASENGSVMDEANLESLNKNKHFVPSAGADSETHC

For the compound `C[C@H]1[C@H](O)CN1c1nc(-c2ccc3c(c2)OCCNC3=O)c2c(n1)C(F)(F)CC2` [Example 166, 8-(7,7-difluoro-2-((2S,3R)-3-hydroxy-2-methylazetidin-1-yl)-6,7-dihydro-5H-cyclopenta[d]pyrimidin-4-yl)-3,4-dihydrobenzo[f][1,4]oxazepin-5(2H)-one], the concentration for half-maximal inhibition (IC50) on human OATP1B1 [1] stood at 1740 nM; at human KHK-C, 5 nM. The concentration for a half-maximal effect (EC50) in data set [2] came to 39.7 nM; in the data set with HepG2 cells (HepG2, HepG2 cells, 50% human plasma, read-out: F1P 50% HP EC50) it was 47.3 nM; in the data set on HepG2 cells (HepG2, read-out: F1P 10% FBS EC50, HepG2 cells, cell culture medium (10% FBS)), 36.7 nM. On human OATP1B1 [3], the “OATP1B1 Substrate” value was “YES”.
As for `C[C@H]1[C@H](O)CN1c1nc2c(c(-c3cccc(S(N)(=O)=O)c3)n1)CCC2` [Example 209, 3-[2-[(2S,3R)-3-hydroxy-2-methyl-azetidin-1-yl]-6,7-dihydro-5H-cyclopenta[d]pyrimidin-4-yl]benzenesulfonamide], the pKa is 3.54 in data set [4] (pH range 1.7-11.2, read-out: 1st pKa) and 9.45 in data set [4] (pH range 1.7-11.2, read-out: 2nd pKa). Further, on human OATP1B1 [1], the IC50 worked out at 5570 nM. This compound gave an EC50 in data set [2] of 249 nM. In addition, the “OATP1B1 Substrate” value on human OATP1B1 [3] is listed as “YES”.
`C[C@H]1CCN1c1nc(N2C[C@@H]3[C@@H](CC(=O)O)[C@@H]3C2)cc(C(F)(F)F)n1` [Reference Compound 1, reference compound] registered a 50% inhibitory concentration (IC50) on human OATP1B1 [1] of 1190 nM. On human OATP1B1 [3], the “OATP1B1 Substrate” value is given as “YES”.
Taken in the same sequence, the figures for `C[C@H]1CCN1c1nc(N2CC[C@H](CC(=O)O)C2)cc(C(F)(F)F)c1C#N` [Reference Compound 2, 2-((R)-1-(5-cyano-6-((S)-2-methylazetidin-1-yl)-4-(trifluoromethyl)pyridin-2-yl)pyrrolidin-3-yl)acetic acid, reference compound] were 267 nM and “YES”.
Take `C[C@H]1CCN1c1nc(N2C[C@@H]3[C@@H](CC(=O)O)[C@@H]3C2)c2c(n1)C(F)(F)CC2` [Reference Compound 5, reference compound]: the IC50 at human OATP1B1 [1] was found to be 720 nM. For the same compound, the “OATP1B1 Substrate” value at human OATP1B1 [3] was “YES”.
The compound `C[C@H]1CCN1c1nc(N2C[C@@H]3[C@@H](CC(=O)O)[C@@H]3C2)c2c(n1)C(F)(F)CCC2` [Reference Compound 6, reference compound] yielded an IC50 against human OATP1B1 [1] of 960 nM. For the same compound, at human OATP1B1 [3], the “OATP1B1 Substrate” value is recorded as “YES”.

The term IC50 denotes the point on the concentration scale where inhibition reaches its midpoint. A lower IC50 goes with greater potency. For orientation: EC50 means the midpoint of the concentration-response curve. One may read the pKa as the negative logarithm of the acid dissociation constant.
